Data taken from patent US10711313B2, “Kit for detecting ctDNA and expression of drug-resistant genes related to applicability of tumor chemotherapeutic drugs” (GUIZHOU MEDICAL UNIVERSITY, priority 2018, dated 2020).

Key:
[1] = tested on: ctDNA; test: ctDNA detection by fluorescence of the probe in Tris-HCl/KCl buffer pH 7.2; assay type: binding
Procedure: First, a buffer solution of pH 7.2 is prepared, the preparation process of which is as follows: 394 mg of Tris-HCl and 1.863 g of KCl are added to a 250 ml beaker, and deionized water is added to prepare a buffer solution containing 10 mmol/L Tris-HCl and 100 mmol/L KCl and of pH 7.2 buffer solution.
Then, the buffer solution was used to prepare 0-500 μg/ml ctDNA aqueous solutions, wherein the BHVC content was maintained at 5×10^−6 mol/L.
Taking deionized water solution with ctDNA content of 100 μg/ml as an example, the specific preparation process is described as follows: First, […] compound BHVC was added to a 100 ml volumetric flask, followed by the addition of 100 ml pH 7.2 buffer solution to formulate to a BHVC buffer solution of concentration of 10^−4 mol/L, then 1 ml the above solution was removed to dilute to 10 ml so that the concentration of BHVC was 10^−5 mol/L, 5 ml of this solution was taken and added to a clean spawn bottle.
Then […] ctDNA was taken and added to 10 ml volumetric flask, buffer was added to formulate as 100 μg/ml ctDNA solution, 1 ml this solution was taken, and then added to 4 ml buffer solution, the ctDNA concentration is diluted to 20 μg/ml, the ctDNA solution was added dropwise to the BHVC buffer solution previously placed in the spawn bottle under vigorous stirring. After the addition was completed, the ctDNA solution was allowed to stand still for 2 hours and its UV-Vis absorption and fluorescence spectra were measured.
Based on the study of the absorption and aggregation-induced luminescence properties of BHVC, the fluorescence occurrence behavior of BHVC buffer solution with different ctDNA concentrations was studied with a buffer solution of pH 7.2 and containing 10 mmol/L Tris-HCl and 100 mmol/L KCl, the changes in the detected fluorescence spectrum are shown in FIG. 3 (a). It can be seen from the figure: as the ctDNA concentration increases, the fluorescence intensity of the solution gradually increases, and the fluorescence peak is blue-shifted. When the content of ctDNA changed from 0 μg/ml to 50 μg/ml, the maximum emission peak of fluorescence spectrum shifted from 633 nm to 598 nm, that is blue shifted […]. When the ctDNA concentration was more than 50 μg/ml, the blue shift of the peak of the fluorescence spectrum appeared inflection point, the rate of change slowed down. When the ctDNA content was 500 μg/ml, the peak shifted to 576 nm, which was a blue shift of […] relative to the fluorescence spectrum of a 50 μg/ml DNA solution (FIG. 3 (b)).
The trend in the change of fluorescence intensity of the solution is shown in FIG. 4 (A), with the ctDNA concentration increases, the fluorescence intensity of the solution can be divided into two intervals. […]

[2] = UV-Vis absorption of aqueous solutions at different concentrations (solubility); assay type: physicochemical; conditions: 10^-6 to 10^-4 mol/L, no shift of UV absorption spectrum
Text: The UV-vis absorption spectra of aqueous solutions of different concentrations of BHVC are shown in FIG. 1, the absorption peak at […] is derived from the absorption of the two cross-shaped skeletons of BHVC, and the absorption peak at […] is the characteristic absorption peak of tetraphenylethylene group. When the concentration of BHVC in aqueous solution changed from 10^−6 mol/L to 10^−4 mol/L, there was no red-shift or blue-shift of the UV absorption spectrum of the solution. In general, the shift of the absorption peak of the π-conjugated chromophore solution is due to the π-π interaction between the molecules.

[3] = Fluorescence in water, ethanol and acetone (aggregation-induced luminescence); assay type: physicochemical
Procedure: Fluorescence spectra were measured on a Perkin Elmer LS95, HITACH F-4500, and Edinburgh FLS920 fluorescence spectrometers at room temperature with laterally collection of fluorescence. Fluorescence lifetime was measured using the Edinburgh FLS920 fluorescence spectrometer. Two-photon fluorescence utilized laser pulses emitted by a Ti: sapphire Mira900-F mode-locked laser as the irradiation light source with a repetition frequency of 76 MHz and a pulse width of 200 fs using the SpectroPro 300i spectrometer to collect fluorescence laterally. […] All the test utilized 1.0 cm×1.0 cm Quartet pass quartz crystal cuvette. Reagents used to prepare solutions are either spectroscopic or chromatographic purified.
It can be seen that the fluorescence intensity of BHVC in aqueous solution is very weak and the fluorescence emission peak is at 627 nm. However, the fluorescence intensity in ethanol solution with the same concentration of BHVC increases by 30 times, and the fluorescence emission peak red-shifted to 631 nm. In fact, ethanol is a poor solvent for BHVC. Therefore, BHVC exists in the form of aggregates in ethanol solvent.

CCn1c2cc(/C=C/c3cc[n+](C)cc3)ccc2c2ccc(/C=C/c3cc[n+](C)cc3)cc21.[I-].[I-] [BHVC, 2,7-bis (1-methyl-4-vinylpyridine)-9-ethylcarbazole iodised salt]
Stern-Volmer constant Ksv ([1]; ctDNA 0-50 μg/ml linear interval, I/I0=Ksv[Q]+1, excitation 420 nm): 1.4×10^2 | blue shift of emission peak (to 576 nm) relative to 50 μg/ml DNA solution ([1]; ctDNA 500 μg/ml): 24 nm | increase of fluorescence intensity relative to 0 μg/ml ctDNA ([1]; ctDNA 500 μg/ml, BHVC 5×10^-6 mol/L): 20 fold | blue shift of maximum emission peak (633 nm to 598 nm) ([1]; ctDNA from 0 μg/ml to 50 μg/ml): 35 nm | solubility in aqueous solution [2]: good solubility | increase of fluorescence intensity in ethanol versus aqueous solution ([3]; 10^-5 mol/L, excitation 420 nm): 30 times | solvent quality of ethanol for the probe ([3]; ethanol, exists as aggregates): poor solvent
